The source of these data is US20080319001A1, “Cancer Treatment Using Specific 3,6,9-Substituted Acridines” (priority 2005, published 2008).

For one assay, the system named is human telomerase. The settings on record: Read et al. 2001; Harrison et al. 2003; Schultes et al. 2004; cited from earlier work.
The next assay has as its system A549-derived xenografts. Description: A549 xenograft combination study. It counts as in vivo, mouse. The settings on record: single agent (AS1410 1 mg/kg or cisplatin 6 mg/kg), after approximately 60 days. The procedure: AS1410 was reconstituted in 0.9% saline B.P. to the required final concentration (0.331 and 0.0993) mg/ml of AS1410 succinate salt for intravenous administration).
The xenografts were prepared from the lung carcinoma A549 (ATCC Number CCL-185). Cells were grown in accordance with standard operating procedures and established methodology for this cell line to provide 5×10^6 cells per mouse.
A549-derived xenografts were established in 50 female nu/nu MF1 mice respectively by subcutaneous injection into the right flank of each mouse (5×10^6 cells in 100 μl phosphate buffered saline).
Animals were checked regularly until visible tumours appeared. Tumours were then measured in accordance with the relevant SOP regularly and tumour volume calculated using the formula: […]
Once the tumours were established, the mice were allocated into groups of 9 mice using a randomization procedure based on stratified xenograft volume.
Day 0 is defined as the day on which the average tumour volume is between 0.04 to 0.1 cm^3. Relative tumour volume on Day 0 is defined as 1.
Each mouse was observed and tumours measured until the xenografts tripled (3V0) in volume compared with volume on the day of treatment (V0). The elapsed period is the volume tripling time (VTT).
AS1410 was given by slow bolus intravenous injection. For AS1410 a dose volume 5 μl/g bodyweight was used. Control mice were untreated. […]

Take `Nc1ccc(Nc2c3ccc(NC(=O)CCN4CCCC4)cc3nc3cc(NC(=O)CCN4CCCC4)ccc23)cc1` [BR-ACO-20]: the “in vitro inhibitory activity against human telomerase” value in the assay on human telomerase is reported as “potent in vitro inhibitory activity”.
Take `N.N.[Cl][Pt][Cl]` [cisplatin, cis-diaminedichloroplatinum(II)]: the relative tumour volume result with A549-derived xenografts is recorded as “about 5”.
